Measured values as given in ChEMBL document CHEMBL4613324, “Design, Synthesis, and Evaluation of a Series of Novel Super Long-Acting DPP-4 Inhibitors for the Treatment of Type 2 Diabetes” (J Med Chem, 2020).
Active and inactive are the calls of the source. No cut-off for these calls is given here.

Key:
CYP1A2 = CYP1A2 (Homo sapiens, UniProt P05177); test: Stability assessed as recombinant human CYP1A2 mediated compound metabolism by measuring parent compound remaining after 30 mins relative to control; assay type: ADME; details: read-out: Stability
[1] = Cmax in ICR mouse at 2 mg/kg, po measured after 0.0833 to 120 hrs by LC-MS-MS analysis; assay type: ADME, organism-based; parameters: dose 2 mg/kg, route oral; details: in vivo
[2] = target: Dipeptidyl peptidase 4 (Mus musculus) (UniProt P28843); test: Ex-vivo inhibition of DPP4 in plasma isolated from ob/ob mouse treated at 3 to 30 mg/kg, po measured after 2 to 72 hrs by fluorescence based assay; assay type: functional, organism-based
Rhesus monkey [3] = test: Ex-vivo inhibition of DPP4 in plasma isolated from rhesus monkey treated at 10 mg/kg, ig after 2 weeks by fluorescence based assay relative to control; assay type: functional; details: Macaca mulatta, po, 336 h
Rhesus monkey [4] = test: Ex-vivo inhibition of DPP4 in plasma isolated from rhesus monkey treated at 10 mg/kg, ig after 3 weeks by fluorescence based assay relative to control; assay type: functional; details: Macaca mulatta, po, 504 h
Mus musculus [5] = test: Antidiabetic activity in ob/ob mouse assessed as reduction in random blood glucose levels at 1 to 10 mg/kg, po dosed once every three days for 31 days; assay type: functional, organism-based
Dipeptidyl peptidase 9 = Dipeptidyl peptidase 9 (Homo sapiens, UniProt Q86TI2); test: Inhibition of human recombinant DPP9 incubated for 15 mins using Gly-Pro-7-AMC substrate
CYP2B6 = CYP2B6 (Homo sapiens, UniProt P20813); test: Stability assessed as recombinant human CYP2B6 mediated compound metabolism by measuring parent compound remaining after 30 mins relative to control; assay type: ADME; details: read-out: Stability
CYP2C9 = CYP2C9 (Homo sapiens, UniProt P11712); test: Stability assessed as recombinant human CYP2C9 mediated compound metabolism by measuring parent compound remaining after 30 mins relative to control; assay type: ADME; details: read-out: Stability
CYP2D6 = CYP2D6 (Homo sapiens, UniProt P10635); test: Stability assessed as recombinant human CYP2D6 mediated compound metabolism by measuring parent compound remaining after 30 mins relative to control; assay type: ADME; details: read-out: Stability
CYP3A4 = CYP3A4 (Homo sapiens, UniProt P08684); test: Stability assessed as recombinant human CYP3A4 mediated compound metabolism by measuring parent compound remaining after 30 mins relative to control; assay type: ADME; details: read-out: Stability
Cytochrome P450 2D6 = Cytochrome P450 2D6 (Homo sapiens, UniProt P10635); test: Inhibition of recombinant human CYP2D6; assay type: ADME
Cytochrome P450 3A5 [6] = target: T1, Cytochrome P450 3A5 (Homo sapiens, UniProt P20815); test: Inhibition of recombinant human CYP3A5 using testosterone as substrate; assay type: ADME
Cytochrome P450 2C9 = Cytochrome P450 2C9 (Homo sapiens, UniProt P11712); test: Inhibition of recombinant human CYP2C9; assay type: ADME
Cytochrome P450 2C19 = Cytochrome P450 2C19 (Homo sapiens, UniProt P33261); test: Inhibition of recombinant human CYP2C19; assay type: ADME
Cytochrome P450 2E1 = Cytochrome P450 2E1 (Homo sapiens, UniProt P05181); test: Inhibition of recombinant human CYP2E1; assay type: ADME
Cytochrome P450 3A5 [7] = target: T1, Cytochrome P450 3A5; test: Inhibition of recombinant human CYP3A5 using midazolam as substrate; assay type: ADME
Cytochrome P450 2A6 = target: T2, Cytochrome P450 2A6 (Homo sapiens, UniProt P11509); test: Inhibition of recombinant human CYP2A6; assay type: ADME
T2 sequence (P11509 whole entry): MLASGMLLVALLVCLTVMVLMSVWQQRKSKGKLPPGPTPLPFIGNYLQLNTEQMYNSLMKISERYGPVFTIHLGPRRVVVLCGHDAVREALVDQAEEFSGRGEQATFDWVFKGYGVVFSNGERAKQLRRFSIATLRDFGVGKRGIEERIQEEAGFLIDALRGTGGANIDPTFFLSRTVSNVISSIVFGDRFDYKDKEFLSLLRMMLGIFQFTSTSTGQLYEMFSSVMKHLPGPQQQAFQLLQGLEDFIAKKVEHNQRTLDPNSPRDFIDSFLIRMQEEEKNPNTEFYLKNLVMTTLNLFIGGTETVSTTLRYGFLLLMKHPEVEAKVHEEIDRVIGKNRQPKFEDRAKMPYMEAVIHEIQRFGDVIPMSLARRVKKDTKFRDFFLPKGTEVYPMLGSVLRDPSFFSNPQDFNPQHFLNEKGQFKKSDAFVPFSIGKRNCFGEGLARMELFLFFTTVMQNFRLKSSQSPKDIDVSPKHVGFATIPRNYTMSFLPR

Cytochrome P450 2B6 = target: T3, Cytochrome P450 2B6 (Homo sapiens, UniProt P20813); test: Inhibition of recombinant human CYP2B6; assay type: ADME
T3 sequence (P20813 whole entry): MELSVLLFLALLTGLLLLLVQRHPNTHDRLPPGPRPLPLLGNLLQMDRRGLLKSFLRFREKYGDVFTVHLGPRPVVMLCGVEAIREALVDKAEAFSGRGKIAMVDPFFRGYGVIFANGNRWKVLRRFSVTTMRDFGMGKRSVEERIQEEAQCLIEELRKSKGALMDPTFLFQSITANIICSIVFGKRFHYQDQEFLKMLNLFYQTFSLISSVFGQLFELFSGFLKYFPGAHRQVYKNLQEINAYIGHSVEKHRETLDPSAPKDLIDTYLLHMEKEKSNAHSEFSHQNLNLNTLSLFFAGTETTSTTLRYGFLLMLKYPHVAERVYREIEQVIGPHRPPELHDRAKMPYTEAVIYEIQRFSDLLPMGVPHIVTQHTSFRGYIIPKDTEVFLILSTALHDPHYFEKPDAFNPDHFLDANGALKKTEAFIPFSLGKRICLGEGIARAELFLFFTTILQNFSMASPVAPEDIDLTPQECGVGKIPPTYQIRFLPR

Cytochrome P450 2C8 = target: T4, Cytochrome P450 2C8 (Homo sapiens, UniProt P10632); test: Inhibition of recombinant human CYP2C8; assay type: ADME
T4 sequence (P10632 whole entry): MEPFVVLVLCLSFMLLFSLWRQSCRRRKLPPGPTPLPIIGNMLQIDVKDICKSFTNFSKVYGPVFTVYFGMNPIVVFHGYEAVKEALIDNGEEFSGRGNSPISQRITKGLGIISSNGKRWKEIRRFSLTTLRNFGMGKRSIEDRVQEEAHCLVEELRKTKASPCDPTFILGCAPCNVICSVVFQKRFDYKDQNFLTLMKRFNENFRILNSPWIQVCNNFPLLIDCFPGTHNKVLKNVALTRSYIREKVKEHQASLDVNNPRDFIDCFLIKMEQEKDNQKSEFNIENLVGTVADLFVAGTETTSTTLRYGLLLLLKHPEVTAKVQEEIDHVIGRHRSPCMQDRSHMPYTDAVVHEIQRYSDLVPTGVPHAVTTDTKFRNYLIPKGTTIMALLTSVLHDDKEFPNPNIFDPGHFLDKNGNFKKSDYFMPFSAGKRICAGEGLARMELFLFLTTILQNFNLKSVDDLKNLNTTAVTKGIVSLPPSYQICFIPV

[8] = Toxicity in Sprague-Dawley rat during single oral dose toxicology study; details: in vivo
[9] = AUC in T2D patient; assay type: ADME; details: human, in vivo
Mus musculus [10] = test: Antidiabetic activity in ob/ob mouse assessed as reduction in decrease in HbA1c level at 3 mg/kg, po dosed once every three days for 31 day relative to control; assay type: functional; parameters: scale not given: the % may be the effect or the level left

T1 sequence (P20815 whole entry): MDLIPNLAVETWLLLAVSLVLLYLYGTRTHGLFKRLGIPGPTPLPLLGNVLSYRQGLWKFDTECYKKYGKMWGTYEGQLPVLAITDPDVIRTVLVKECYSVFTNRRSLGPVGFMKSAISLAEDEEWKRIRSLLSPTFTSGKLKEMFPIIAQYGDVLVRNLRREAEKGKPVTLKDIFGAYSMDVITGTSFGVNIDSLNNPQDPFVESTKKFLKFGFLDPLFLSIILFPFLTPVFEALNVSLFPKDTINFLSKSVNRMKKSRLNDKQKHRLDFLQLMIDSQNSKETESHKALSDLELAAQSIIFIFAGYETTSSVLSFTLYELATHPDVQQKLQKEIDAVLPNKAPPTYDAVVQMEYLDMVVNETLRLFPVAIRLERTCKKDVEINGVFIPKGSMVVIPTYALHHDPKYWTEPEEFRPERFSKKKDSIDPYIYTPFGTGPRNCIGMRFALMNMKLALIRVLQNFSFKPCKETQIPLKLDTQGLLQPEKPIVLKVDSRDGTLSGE
Cytochrome P450 2D6, sequence (P10635 whole entry): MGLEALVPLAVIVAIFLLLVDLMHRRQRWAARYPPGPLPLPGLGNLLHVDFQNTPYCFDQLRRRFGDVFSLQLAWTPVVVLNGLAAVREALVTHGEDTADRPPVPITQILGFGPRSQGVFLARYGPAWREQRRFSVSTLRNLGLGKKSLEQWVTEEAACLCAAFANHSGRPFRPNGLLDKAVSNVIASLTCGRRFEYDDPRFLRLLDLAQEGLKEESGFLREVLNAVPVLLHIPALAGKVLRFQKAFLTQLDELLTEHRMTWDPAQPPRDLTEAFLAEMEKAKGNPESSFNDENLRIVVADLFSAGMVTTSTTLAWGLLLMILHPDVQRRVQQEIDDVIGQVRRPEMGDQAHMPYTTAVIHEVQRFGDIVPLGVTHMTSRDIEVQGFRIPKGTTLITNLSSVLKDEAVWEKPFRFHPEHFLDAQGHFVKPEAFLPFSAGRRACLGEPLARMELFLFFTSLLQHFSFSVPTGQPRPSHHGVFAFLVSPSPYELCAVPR
CYP2D6, sequence (P10635 whole entry): as above
Dipeptidyl peptidase 9, sequence (Q86TI2 whole entry): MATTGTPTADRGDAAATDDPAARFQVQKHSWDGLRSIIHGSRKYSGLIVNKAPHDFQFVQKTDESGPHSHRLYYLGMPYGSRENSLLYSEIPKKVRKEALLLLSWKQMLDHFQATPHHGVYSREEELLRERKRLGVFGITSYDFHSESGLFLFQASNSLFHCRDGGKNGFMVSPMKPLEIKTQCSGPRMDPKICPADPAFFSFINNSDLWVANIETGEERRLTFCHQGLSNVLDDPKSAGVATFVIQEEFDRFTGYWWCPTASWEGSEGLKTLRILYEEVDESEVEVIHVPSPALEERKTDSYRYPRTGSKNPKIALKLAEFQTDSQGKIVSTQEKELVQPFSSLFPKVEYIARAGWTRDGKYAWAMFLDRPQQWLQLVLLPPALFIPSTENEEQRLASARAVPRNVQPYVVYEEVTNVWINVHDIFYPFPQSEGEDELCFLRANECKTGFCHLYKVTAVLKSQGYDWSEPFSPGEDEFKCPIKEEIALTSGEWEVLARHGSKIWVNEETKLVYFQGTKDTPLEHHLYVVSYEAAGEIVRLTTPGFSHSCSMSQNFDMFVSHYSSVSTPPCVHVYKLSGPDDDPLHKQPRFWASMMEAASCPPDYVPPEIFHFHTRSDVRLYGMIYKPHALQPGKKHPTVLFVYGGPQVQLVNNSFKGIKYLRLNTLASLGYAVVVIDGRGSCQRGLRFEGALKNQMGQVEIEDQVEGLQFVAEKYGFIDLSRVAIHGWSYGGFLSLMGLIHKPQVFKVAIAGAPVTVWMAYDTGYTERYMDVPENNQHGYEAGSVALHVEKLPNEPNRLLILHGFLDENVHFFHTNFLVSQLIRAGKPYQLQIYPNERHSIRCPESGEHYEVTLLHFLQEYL
Cytochrome P450 2C19, sequence (P33261 whole entry): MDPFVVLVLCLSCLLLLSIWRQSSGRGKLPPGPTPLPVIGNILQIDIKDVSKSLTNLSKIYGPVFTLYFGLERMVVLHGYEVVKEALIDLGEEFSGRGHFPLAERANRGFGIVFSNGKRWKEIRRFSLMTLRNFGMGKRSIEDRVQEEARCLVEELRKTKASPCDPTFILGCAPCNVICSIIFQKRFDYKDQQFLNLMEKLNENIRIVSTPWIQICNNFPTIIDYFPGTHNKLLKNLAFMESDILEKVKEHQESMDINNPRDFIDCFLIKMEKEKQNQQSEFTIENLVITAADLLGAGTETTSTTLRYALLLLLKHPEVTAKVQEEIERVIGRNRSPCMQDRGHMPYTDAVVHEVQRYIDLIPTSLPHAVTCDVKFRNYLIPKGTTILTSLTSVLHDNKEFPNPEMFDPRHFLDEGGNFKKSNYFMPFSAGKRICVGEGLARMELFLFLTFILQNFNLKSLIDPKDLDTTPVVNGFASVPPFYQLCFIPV
CYP2C9, sequence (P11712 whole entry): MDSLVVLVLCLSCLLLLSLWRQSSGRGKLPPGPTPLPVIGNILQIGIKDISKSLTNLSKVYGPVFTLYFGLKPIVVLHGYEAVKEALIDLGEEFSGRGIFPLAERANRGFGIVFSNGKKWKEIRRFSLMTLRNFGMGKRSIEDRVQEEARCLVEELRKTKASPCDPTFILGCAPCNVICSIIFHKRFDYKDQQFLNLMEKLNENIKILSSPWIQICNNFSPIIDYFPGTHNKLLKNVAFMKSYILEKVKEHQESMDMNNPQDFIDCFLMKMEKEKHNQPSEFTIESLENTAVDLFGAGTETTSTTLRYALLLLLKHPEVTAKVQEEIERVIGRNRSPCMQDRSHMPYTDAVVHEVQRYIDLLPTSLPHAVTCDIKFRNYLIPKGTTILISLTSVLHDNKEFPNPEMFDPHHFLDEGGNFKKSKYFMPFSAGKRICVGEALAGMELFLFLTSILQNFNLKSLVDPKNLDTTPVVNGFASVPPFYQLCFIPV
Cytochrome P450 2C9, sequence (P11712 whole entry): as above
Dipeptidyl peptidase 4 (Mus musculus), sequence (P28843 whole entry, looked up): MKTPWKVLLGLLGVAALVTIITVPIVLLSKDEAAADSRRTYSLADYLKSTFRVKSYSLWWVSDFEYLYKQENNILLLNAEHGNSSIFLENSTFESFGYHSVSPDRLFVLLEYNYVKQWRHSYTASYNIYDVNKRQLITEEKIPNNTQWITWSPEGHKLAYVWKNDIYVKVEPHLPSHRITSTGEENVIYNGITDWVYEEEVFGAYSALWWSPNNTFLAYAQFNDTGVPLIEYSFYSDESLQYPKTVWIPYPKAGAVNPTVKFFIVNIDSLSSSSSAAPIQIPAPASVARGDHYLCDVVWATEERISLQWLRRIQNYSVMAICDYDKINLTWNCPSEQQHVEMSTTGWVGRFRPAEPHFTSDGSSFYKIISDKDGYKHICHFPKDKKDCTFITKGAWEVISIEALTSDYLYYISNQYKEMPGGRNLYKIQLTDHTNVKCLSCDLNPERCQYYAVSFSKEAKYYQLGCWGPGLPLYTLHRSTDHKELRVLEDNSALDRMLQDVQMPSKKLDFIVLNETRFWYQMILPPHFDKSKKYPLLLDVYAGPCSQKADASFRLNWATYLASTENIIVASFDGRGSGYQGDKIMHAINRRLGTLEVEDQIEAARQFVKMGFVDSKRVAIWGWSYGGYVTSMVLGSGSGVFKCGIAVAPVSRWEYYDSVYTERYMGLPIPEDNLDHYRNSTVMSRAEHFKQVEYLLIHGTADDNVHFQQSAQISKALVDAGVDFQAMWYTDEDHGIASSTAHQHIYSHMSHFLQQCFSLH
CYP3A4, sequence (P08684 whole entry): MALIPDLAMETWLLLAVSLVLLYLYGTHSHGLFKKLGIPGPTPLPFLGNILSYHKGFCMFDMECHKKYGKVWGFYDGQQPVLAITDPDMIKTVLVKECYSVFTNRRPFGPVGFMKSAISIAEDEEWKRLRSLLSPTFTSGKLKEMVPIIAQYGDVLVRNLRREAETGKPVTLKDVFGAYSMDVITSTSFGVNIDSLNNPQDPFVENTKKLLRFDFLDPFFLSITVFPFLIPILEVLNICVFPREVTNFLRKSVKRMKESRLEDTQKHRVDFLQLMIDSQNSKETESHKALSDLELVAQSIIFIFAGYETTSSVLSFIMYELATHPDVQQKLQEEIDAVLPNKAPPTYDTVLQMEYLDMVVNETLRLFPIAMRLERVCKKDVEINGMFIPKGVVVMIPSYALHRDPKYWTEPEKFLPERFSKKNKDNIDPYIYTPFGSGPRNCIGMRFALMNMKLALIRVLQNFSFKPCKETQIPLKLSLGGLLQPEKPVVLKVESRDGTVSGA

## CS(=O)(=O)n1cc2c(n1)CN([C@@H]1C[C@H](N)[C@@H](c3cc(F)ccc3F)O[C@@H]1C(F)(F)F)C2 [COFROGLIPTIN]
CYP1A2
  remaining at 0.5 h: > 95%
[1]
  Cmax: 352 ng/mL
[2]
  inhibition: Dose-dependent effect
Rhesus monkey [3]
  inhibition in vivo at 10 mg/kg: 76.2%
Rhesus monkey [4]
  inhibition in vivo at 10 mg/kg: 43.4%
Mus musculus [5]
  Activity: Active
Dipeptidyl peptidase 9
  IC50: > 100 µM
CYP2B6
  remaining at 0.5 h: > 95%
CYP2C9
  remaining at 0.5 h: > 95%
CYP2D6
  remaining at 0.5 h: > 95%
CYP3A4
  remaining at 0.5 h: > 95%
Cytochrome P450 2D6
  IC50: > 100 µM
Cytochrome P450 3A5 [6]
  IC50: > 100 µM
Cytochrome P450 2C9
  IC50: > 100 µM
Cytochrome P450 2C19
  IC50: > 100 µM
Cytochrome P450 2E1
  IC50: > 100 µM
Cytochrome P450 3A5 [7]
  IC50: > 100 µM
Cytochrome P450 2A6
  IC50: > 100 µM
Cytochrome P450 2B6
  IC50: > 100 µM
Cytochrome P450 2C8
  IC50: 76.3 µM
[8]
  MTD: 1000 mg/kg
[9]
  AUC: 34900 ng·h/mL
Mus musculus [10]
  Activity: 19.1%
